Experiments:
OST6 complex = biological target: T1, OST6 complex (Saccharomyces cerevisiae, UniProt P39007); assay: Synthetic LLO preferences and OST activity comparison, OST6 complex; assay type: biochemical; conditions: OST6 complex 0.5 μM, 25 μM TAMRA-YANATS, 50 μM LLO; n = 3
T1 construct: were purified separately from strains expressing only one type of complex; made in house; host or cells: Saccharomyces cerevisiae, BY4742-derived strain ost3::LEU2MX6 OST4-1D4::kanMX6 YEp352-OST6
Protocol: (§1) Figure 5 OST3 complex turns over both glycosylation substrates faster than the OST6 complex, but with similar substrate affinities.A, enzyme activity of OST3 and OST6 complexes. Reactions were performed with 25 μM peptide TAMRA-YANATS, 50 μM LLO C20, and varying concentrations of purified OST3 complex (blue) or OST6 complex (red). Glycopeptide product was measured by UPLC and initial rates of reaction were determined by linear regression of the initial phase of the reaction. Turnover rates were determined by linear regression of the initial rates of reaction measured across the enzyme concentrations of 0.01–0.1 μM for OST3 complex and 0.1–0.5 μM for OST6 complex. Error bars indicate standard deviations from the mean of three reaction sets (n = 3). B, synthetic LLO preferences of OST3 and OST6 complexes. […] Turnover rates were determined by linear regression of the initial phase of the reaction and accounting for the enzyme concentration in the reaction. […] C, quantification of kinetic parameters for the synthetic LLO C20. […] Turnover rates were determined by linear regression of the initial phase of the reaction and accounting for the enzyme concentration in the reaction. […] D, quantification of kinetic parameters for the peptide TAMRA-YANATS. […] Turnover rates were determined by linear regression of the initial phase of the reaction and accounting for the enzyme concentration in the reaction. […]

OST3 complex = biological target: T2, OST3 complex (Saccharomyces cerevisiae, UniProt P39007); assay: Synthetic LLO preferences, OST3 complex; assay type: biochemical; conditions: OST3 complex 0.09 μM, 25 μM TAMRA-YANATS, 50 μM LLO; n = 3
T2 construct: were purified separately from strains expressing only one type of complex; made in house; host or cells: Saccharomyces cerevisiae, BY4742-derived strain ost6::LEU2MX6 OST4-1D4::kanMX6 YEp352-OST3
Protocol: as §1

Structure (SMILES): CC(=O)N[C@H]1[C@@H](OP(=O)(O)OP(=O)(O)OC/C=C(\C)CC/C=C(\C)CCC=C(C)C)O[C@H](CO)[C@@H](O[C@@H]2O[C@H](CO)[C@@H](O)[C@H](O)[C@H]2NC(C)=O)[C@@H]1O [LLO C15]
- turnover rate ranking among LLO analogs (OST6 complex): lowest reaction rates
- turnover rate ranking among LLO analogs (OST3 complex): lowest reaction rates

From article PMC8191290, “Substrate specificities and reaction kinetics of the yeast oligosaccharyltransferase isoforms” (The Journal of Biological Chemistry, 2021)
